This is an account of results in ChEMBL document CHEMBL1149227, “The discovery of structurally novel CCR1 antagonists derived from a hydroxyethylene peptide isostere template” (Bioorg Med Chem Lett, 2004).

One assay deals with T1, Renin (Rattus norvegicus, UniProt P08424).
T1 sequence (P08424 whole entry): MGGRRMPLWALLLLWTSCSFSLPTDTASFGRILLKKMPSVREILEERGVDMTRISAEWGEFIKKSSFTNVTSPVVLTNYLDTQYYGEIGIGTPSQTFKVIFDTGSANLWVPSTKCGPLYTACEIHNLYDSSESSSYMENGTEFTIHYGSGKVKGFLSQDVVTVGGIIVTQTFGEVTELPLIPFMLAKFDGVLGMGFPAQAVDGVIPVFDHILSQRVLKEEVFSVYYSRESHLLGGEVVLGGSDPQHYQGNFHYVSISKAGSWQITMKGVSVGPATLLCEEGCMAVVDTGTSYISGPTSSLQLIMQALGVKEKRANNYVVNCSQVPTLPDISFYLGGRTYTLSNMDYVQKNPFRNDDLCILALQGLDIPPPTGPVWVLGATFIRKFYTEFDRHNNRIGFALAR
The assay is described as follows: Inhibitory activity of compound against renin was determined.

Assay [1] deals with T2, C-C chemokine receptor type 1 (Homo sapiens, UniProt P32246).
T2 sequence (P32246 whole entry): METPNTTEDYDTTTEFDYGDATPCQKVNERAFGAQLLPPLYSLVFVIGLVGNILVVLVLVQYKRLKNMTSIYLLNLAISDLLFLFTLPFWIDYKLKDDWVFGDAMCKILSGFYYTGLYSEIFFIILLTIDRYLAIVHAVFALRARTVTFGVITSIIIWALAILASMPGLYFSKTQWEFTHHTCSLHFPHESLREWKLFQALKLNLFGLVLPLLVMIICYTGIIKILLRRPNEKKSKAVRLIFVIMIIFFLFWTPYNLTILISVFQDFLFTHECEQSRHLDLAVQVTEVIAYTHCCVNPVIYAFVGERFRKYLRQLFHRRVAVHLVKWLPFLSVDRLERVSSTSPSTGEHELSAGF
The assay is described as follows: Inhibition of CCL3 binding to C-C chemokine receptor type 1.

Assay [2] concerns THP-1. The assay is described as follows: Inhibition of CCL5 induced chemotaxis in THP-1 cells. Conditions: Homo sapiens. In kind it is functional, cell-based.
Assay [3] has as its system THP-1. The assay can be described thus: (§1) Inhibition of CCL3 induced chemotaxis in THP-1 cells; inactive at a concentration of 25 uM. In kind it is functional, cell-based. Conditions: Homo sapiens.
The subject of assay [4] is THP-1. The assay is described as follows: Inhibition of CCL3 induced chemotaxis in THP-1 cells. The note with it: Homo sapiens. In kind it is functional, cell-based.
Assay [5] has as its system THP-1. The description is as §1. In kind it is functional. Conditions: Homo sapiens.

A word on the IC50: it is the midpoint of a concentration-inhibition curve. Turning to `C=C(Cl)C[C@H](C[C@H](O)[C@H](CC1CCCCC1)NC(=O)c1cc2cc(Cl)ccc2[nH]1)C(=O)NC`, the IC50 on Renin is 0.041 µM; in assay [1], over 32 µM; with THP-1 [2] it was over 25 µM.

In the assay with THP-1 [3], `CNC(=O)[C@H](CC(C)C)C[C@@H](O)[C@@H](CC1CCCCC1)NC(=O)c1cnc2ccccc2c1` registered an IC50 of under 50 µM.

Turning to `CNC(=O)[C@H](CC(C)C)C[C@@H](O)[C@H](CC1CCCCC1)NC(=O)c1cnc2ccccc2c1`, the half-maximal inhibitory concentration (IC50) in the assay on THP-1 [3] is over 25 µM. Take `CNC(=O)[C@@H](CC(C)C)C[C@H](O)[C@H](CC1CCCCC1)NC(=O)c1cnc2ccccc2c1`: the IC50 came out at 30 µM in assay [1] and 12 µM with THP-1 [4]. Consider `CNC(=O)[C@H](CC(C)C)C[C@H](O)[C@H](CC(C)C)NC(=O)c1cnc2ccccc2c1`, for which, in assay [1], the half-maximal inhibitory concentration (IC50) amounted to 11.8 µM.

For `CNC(=O)[C@@H](CC(C)C)C[C@H](O)[C@@H](CC1CCCCC1)NC(=O)c1cnc2ccccc2c1`, the half-maximal inhibitory concentration (IC50) in the assay with THP-1 [3] is under 50 µM. In general, inhibition refers to how much of the control response was suppressed. Read a low inhibition as a weak effect. `CNC(=O)[C@H](CC(C)C)C[C@H](O)[C@@H](CC1CCCCC1)NC(=O)c1cnc2ccccc2c1` had an inhibition at 25 µM in the assay on THP-1 [5] of under 50%.

For the compound `CC(C)C[C@H](C[C@H](O)[C@H](CC1CCCCC1)NC(=O)c1cnc2ccccc2c1)C(N)=O`, the figures for the IC50 (in assay [1]; in the assay with THP-1 [4]) were 8 µM and 6.3 µM, respectively. As to `CNC(=O)[C@@H](CC(C)C)C[C@@H](O)[C@H](CC1CCCCC1)NC(=O)c1cnc2ccccc2c1`, the IC50 with THP-1 [4] is 7.7 µM. `CNC(=O)[C@H](CC(C)C)C[C@H](O)[C@H](CC1CCCCC1)NC(=O)c1cnc2ccccc2c1`: the IC50 is over 10 µM against Renin, 2.3 µM in assay [1] and 0.63 µM in the assay on THP-1 [2]. The compound `CNC(=O)[C@H](CC(C)C)C[C@H](O)[C@H](Cc1ccccc1)NC(=O)c1cnc2ccccc2c1` displayed an IC50 in assay [1] of 0.65 µM. In turn, `CNC(=O)[C@H](CC(C)C)C[C@H](O)[C@H](CC1CCCCC1)NS(=O)(=O)c1cnc2ccccc2c1` registered an IC50 with THP-1 [3] of under 50 µM.

`CNC(=O)[C@@H](CC(C)C)C[C@@H](O)[C@@H](CC1CCCCC1)NC(=O)c1cnc2ccccc2c1`: the figures for the IC50 (in assay [1]; in the assay with THP-1 [3]) were 15 µM and under 50 µM, respectively.

Compound `CC[C@H](C)[C@H](NC(=O)c1cnc2ccccc2c1)[C@@H](O)C[C@@H](CC(C)C)C(=O)NC` registered an IC50 in the assay on THP-1 [3] of under 50 µM. Compound `CC(C)C[C@H](C[C@H](O)[C@H](CC1CCCCC1)NC(=O)c1cnc2ccccc2c1)C(=O)N(C)C` gave an IC50 in the assay with THP-1 [3] of under 50 µM.
